Where “and” joins values, the source holds several entries; their conditions need not be identical. Equal values may be shown once. Values belong to the molecule of their own block, whether it stands above or below them.
Experiments:
[1] = system: cultured dorsal root ganglia (DRG) cells; assay type: cell-based, mouse
[2] = Determination of absorbance maximum and molar extinction coefficient (ε) in KMOPS buffer; assay type: physicochemical; conditions: for ε (molar extinction coefficient): at λmax
Description: Determination of the Molar Extinction Coefficient (ε).
(§1) A weighed portion of BHQ-O-5HT was dissolved in methanol. A measured aliquot of this solution was withdrawn and placed in KMOPS buffer (3.0 mL) and mixed thoroughly to generate a 100-μM solution of BHQ-O-5HT. The absorbance A of this solution at τmax=368 nm was measured. This method was repeated twice with different masses of BHQ-O-5HT.
Determination of the Molar Extinction Coefficient (s).
as §1, with “BHQ-VAA” for “BHQ-O-5HT”, “BHQ-VAA.” for “BHQ-O-5HT.”, “λmax=368” for “τmax=368”

[3] = Determination of the uncaging quantum efficiency (Qu), 1-photon photolysis at 365 nm; assay type: physicochemical; conditions: for Qu (uncaging quantum efficiency): 365±15 nm, KMOPS
Description: Determination of the Uncaging Quantum Efficiency (Qu).
(§2) The quantum efficiency was calculated using the equation Qu=(Iσt90%)^−1, where I is the irradiation intensity in einstein·cm^−2, σ is the decadic extinction coefficient (1,000 times ε) and t90% is the time in seconds required for the conversion of 90% of the starting material to product. To find t90%, a solution of BHQ-O-5HT in KMOPS was prepared and placed in a cuvette along with a small stir bar. While stirring, the solution was irradiated with UV light from a mercury lamp (Spectroline SB-100P, Spectronics Corporation) equipped with two glass filters (CS0-52, CS7-60, Ace Glass) so that the wavelength was restricted to 365±15 nm. Periodically, 20-μL aliquots were removed and analyzed by HPLC. The time points collected were as follows: 0, 5, 10, 20, 30, 60, 90, and 120 s. Percent BHQ-O-5HT remaining was plotted verses time of photolysis. A simple single exponential decay curve provided the best fit for the data and was used to extrapolate t90%. The lamp's UV intensity I was measured using potassium ferrioxalate actinometry. Initially, 6 mM potassium ferrioxalate solution (3 mL) was irradiated with the mercury lamp for 60 s. A portion of this solution (2 mL) was combined with aqueous buffer (3 mL), 0.1% phenanthroline solution (3 mL), and 2M KF solution (1 mL) in a 25-mL volumetric flask. Deionized water was added to generate a 25 mL solution. A blank solution was also prepared using the same method, but the potassium ferrioxalate used in the blank was not irradiated. Both solutions were allowed to sit for one hour and the blank was then used as a baseline against which the absorbance of the irradiated solution was measured at 510 nm. The following equation was used to calculate lamp intensity: […]
where V3 is the volume of dilution (25 mL), V2 is the volume of irradiated potassium ferrioxalate solution taken for analysis (2 mL), ΔD510 is the absorption of the solution at 510 nm, Σ510 is the actinometry extinction coefficient (1.11×10^4 M^−1 cm^−1),)Fe is the quantum yield for production of ferrous ions from potassium ferrioxalate at 365 nm, and t represents the time of irradiation. The ΔD510 value used for calculations is the average of two measurements taken before and after irradiation of BHQ-O-5HT. Compilation of the measurements yielded an uncaging quantum efficiency Qu, of 0.30. The experiment was repeated for BHQ-N-5HT, and compilation of the measurements yielded an uncaging quantum efficiency Qu of 0.10.
as §2, with “c)” for “ε)”, “BHQ-VAA” for “BHQ-O-5HT”, “irradiated.” for “irradiated. Both solutions were allowed to sit for one hour and the blank was then used as a baseline against which the absorbance of the irradiated solution was measured at 510 nm. The following equation was used to calculate lamp intensity:”

[4] = Determination of two-photon action cross-sections (δu) at 740 nm; assay type: physicochemical
Description: Determination of Two-photon Action Cross-Sections (δu).
A portion of BHQ-O-5HT was dissolved in KMOPS buffer and the concentration of the solution was found using UV-Vis absorption in conjunction with Beer's law. Aliquots (25 μL) of this solution were placed in a microcuvette (10×1×1 mm illuminated dimensions) and irradiated with a fs-pulsed and mode-locked Ti:Sapphire laser (Chameleon Ultra II, Coherent) with 740-nm light at an average power of 300 mW. Three samples were irradiated for each of the following time periods: 0, 5, 10, 20, and 40 min. The samples were compiled and analyzed by HPLC. A solution of fluorescein at pH 9.0 was prepared to act as a standard for BHQ-O-5HT because of its well-characterized 2PE cross-section (δaF=30 GM at 740 nm) and quantum yield (QF2=0.9). UV-V is absorption spectroscopy was used to correlate absorption at 488 nm to precise concentration. Aliquots (25 μL) of fluorescein solution were placed in the microcuvette and irradiated by the laser under the same conditions used for the BHQ-O-5HT solution. The fluorescence output of the solution was measured with a radiometer before and after the BHQ-O-5HT samples were irradiated and the two values were averaged. The following equation was used to calculate the two-photon action cross-section for BHQ-O-5HT:
where Np is the number of product molecules formed per second (determined by HPLC), φ is the collection efficiency of the detector (SED033 on an IL-1700, International Light) used to measure the fluorescence of fluorescein passing through the cuvette window and through a 535/545 nm bandpass filter at a right angle to the laser's beam, CF is the concentration of fluorescein, <F(t)> is the time averaged fluorescent photon flux (photons/s) of fluorescein and CS is the initial concentration of the caged compound. The measurements were compiled and the two-photon action cross-section for BHQ-O-5HT was determined to be 0.50 GM. The experiment was repeated for BHQ-N-5HT, and the two-photon action cross-section was determined to be 0.42 GM.
Determination of Two photon Action Cross-Sections (δu).
A portion of BHQ-VAA was dissolved in KMOPS buffer and the concentration of the solution was found using UV-Vis absorption in conjunction with Beer's law. Aliquots (25 μL) of this solution were placed in a microcuvette (10×1×1 mm illuminated dimensions) and irradiated with a fs-pulsed and mode-locked Ti: Sapphire laser (Chameleon Ultra II, Coherent) with 740-nm light at an average power of 300 mW. Three samples were irradiated for each of the following time periods: 0, 5, 10, 20, and 40 min. The samples were compiled and analyzed by HPLC. […] The fluorescence output of the solution was measured with a radiometer before and after the BHQ-VAA samples were irradiated and the two values were averaged. […]

[5] = Determination of the dark hydrolysis rate (τdark) in KMOPS; assay type: physicochemical; conditions: for τdark (time constant for dark hydrolysis): 100 μM in KMOPS, stored in the dark
Description: Determination of the Dark Hydrolysis Rate (τdark).
(§3) Three 100-μM solutions of BHQ-O-5HT in KMOPS were created and stored in the dark. Aliquots (20 μL) were removed periodically from each solution and analyzed by HPLC. The percents remaining for each time point for each solution were averaged and plotted versus time. A simple single exponential decay curve provided the best fit. The time constant for dark hydrolysis (τdark) was determined to be 260 h. The experiment was repeated for BHQ-N-5HT, and the time constant for dark hydrolysis (τdark) was determined to be 300 h.
as §3, with “BHQ-VAA” for “BHQ-O-5HT”, “140” for “260”, “h.” for “h. The experiment was repeated for BHQ-N-5HT, and the time constant for dark hydrolysis (τdark) was determined to be 300 h.”

[6] = system: ex vivo zebrafish brain (optic tectum); experiment: Electrophysiological recording of PTZ-induced seizure activity in ex vivo zebrafish brain; conditions: PTZ 15 mM-induced seizure
Description: BHQ-O-5HT Mediates the Light Activation of 5HT in an Ex Vivo Zebrafish Brain Preparation (FIG. 1.1).
A microelectrode inserted into the optic tectum was used to record seizure activity induced by application of pentalenetetrazole (PTZ, 15 mM). The ictal and interictal spikes can be observed at regular intervals. After 1040 s, BHQ-O-5HT (1 mM) was added. No change in the amplitude of the ictal spikes was observed. At 1640 s, the preparation was exposed to a brief (˜1 ms) flash of 365-nm light. […] Since 5HT is an inhibitor of seizures,^1,2 this is the expected result.
Procedure for electrophysiological recording in ex vivo zebrafish brain:
An adult zebrafish brain was obtained by dissection in oxygenated artificial cerebrospinal fluid (ACSF).* A sharp glass pipet microelectrode (15 MΩ impedance), loaded with ACSF, was inserted into the optic tectum. A chloride-coated silver wire (0.010 in., A-M Systems, Inc. Sequim, Wash.) reference (15 MΩ impedance) was placed contra-laterally, adjacent to the brain. Neuronal activity was recorded using an MDA-41 AC Differential Amplifier (Bak Electronics, Mount Airy, Md.) and a Tektronix DPO 3012 Digital Phosphor Oscilloscope (Beaverton, Oreg.) using MATLAB. Baseline activity was recorded for 5 min followed by introduction of PTZ (15 mM). […] The response was recorded for 30 min.

[7] = Table 1.1, KMOPS buffer, 100 μM
[8] = BHQ-OPh, previous unpublished work (Zhu & Dore)
[9] = Table 2.1, KMOPS buffer, 100 μM

Structure (SMILES): CCCCCCCCC(=O)NCc1ccc(O)c(OC)c1 [VNA, N-vanillyl nonanamide, reference compound]
- electrophysiological response (extracellular potential) on topical application ([1]; single DRG neuron, via TRPV1 channels): strong and immediate electrophysiological response

Structure (SMILES): NCCc1c[nH]c2ccc(OCc3ccc4ccc(O)c(Br)c4n3)cc12 [BHQ-O-5HT]
- λmax [2, 7]: 368 nm
- ε (molar extinction coefficient) [2, 7]: 2,000 M^−1 cm^−1
- Sensitivity Qu × ε ([3]; Table 1.1): 600 M⁻¹ cm⁻¹
- Qu (uncaging quantum efficiency) ([3]; Table 1.1): 0.30
- δu (two-photon uncaging action cross-section) ([4]; Table 1.1, KMOPS): 0.50 GM
- τdark (time constant for dark hydrolysis) ([5]; Table 1.1): 260 h
- change in amplitude of ictal spikes, before light ([6]; compound 1 mM added, no irradiation): No change
- change in amplitude of ictal spikes, after light flash ([6]; compound 1 mM, brief (~1 ms) flash of 365-nm light): immediate reduction in the amplitude of the ictal spikes

Structure (SMILES): CCCCCCCCC(=O)NCc1ccc(OCc2ccc3ccc(O)c(Br)c3n2)c(OC)c1 [BHQ-VNA]
- electrophysiological response after light pulse [1]: immediate potential change is observed that is indistinguishable from the VNA trace
- electrophysiological response, bath applied, without light [1]: does not have any affect

Other lines, results leading:

- λmax [2, 7]: 370 nm
- ε (molar extinction coefficient) [2, 7]: 2,100 M^−1 cm^−1
- Sensitivity Qu × ε ([3]; Table 1.1): 210 M⁻¹ cm⁻¹
- Qu (uncaging quantum efficiency) ([3]; Table 1.1): 0.10
- δu (two-photon uncaging action cross-section) ([4]; Table 1.1, KMOPS): 0.42 GM
- τdark (time constant for dark hydrolysis) ([5]; Table 1.1): 300 h
Structure (SMILES): O=C(NCCc1c[nH]c2ccc(O)cc12)OCc1ccc2ccc(O)c(Br)c2n1 [BHQ-N-5HT]

- ε [2, 8]: 3200 M⁻¹ cm⁻¹
- λmax [2, 8]: 369
- quantum efficiency Qu ([3]; 1-photon photolysis at 365 nm, pH 7.2 KMOPS): 0.19
- 2-photon photolysis uncaging action cross section δu ([4]; pH 7.2 KMOPS): 0.56 GM
- time constant for hydrolysis in the dark τdark ([5]; simulated physiological conditions, dark): 95 h
Structure (SMILES): Oc1ccc2ccc(COc3ccccc3)nc2c1Br [BHQ-OPh]

- λmax [2, 9]: 368 nm and 370 nm
- ε (molar extinction coefficient) [2, 9]: 2700 M⁻¹ cm⁻¹
- Sensitivity Qu × ε ([3]; Table 2.1): 486 M⁻¹ cm⁻¹
- Qu (uncaging quantum efficiency) ([3]; Table 2.1): 0.18
- δu (two-photon uncaging action cross-section) ([4]; Table 2.1, KMOPS): 0.61 GM
- τdark (time constant for dark hydrolysis) ([5]; Table 2.1): 140 h
Structure (SMILES): COc1cc(CNC(C)=O)ccc1OCc1ccc2ccc(O)c(Br)c2n1 [BHQ-VAA]
